Results on five compounds are retold here after patent publication EP4745153A1, “GLP-1, GIP AND GCG RECEPTOR […] USE THEREOF” (Jiangsu Hengrui Pharmaceuticals Co., Ltd., priority 2023, dated 2025).

SMILES strings stand for the structures. Starred links: 1 amine or outer side, 2 acyl side, 3 side chain; linkers in the order of their positions; H or OH if unused. Non-standard residues stand in square brackets, D forms with d. Residues, ends and D or L forms follow the SMILES beside them. Groups on a side chain read outwards from the residue. ξ: configuration not given here. *: point of attachment. C20 diacid = O=C(O)CCCCCCCCCCCCCCCCCCC(=O)*; γGlu = O=C(O)[C@H](CCC(=O)[*:2])N[*:1]; αMeL = CC(C)C[C@](C)(N)C(=O)O; αMeK = C[C@](N)(CCCCN)C(=O)O; ξIva = CCC(C)(N)C(=O)O; AEEA = NCCOCCOCC(=O)O; Aib = CC(C)(N)C(=O)O

One series has as its target T1, human GLP-1R (Homo sapiens, UniProt P43220).
T1 construct: expressed in transfected cells; host or cells: CHO-K1 clonal cell line
The series is described as follows: cAMP HTRF agonist activity assay in CHO-K1 cells expressing GLP-1R. Note: 5% FBS, 0.1% Casein. To be noted: read-out: Activity against human GLP-1R (EC50 nM). It is filed as cell-based. As for the experimental part: (§1) Functional activity was determined in CHO-K1 clonal cell lines expressing GIPR, GLP-1R, and GCGR. […] Each recipient cell (5000 cells/well) was added to an SV 96-well plate (Cisbio, 66PL96025) and incubated with the prepared polypeptide at 37°Cfor 30 min. The resulting increase in intracellular cAMP was quantitatively measured using the cAMP-GS dynamic HTRF assay kit (Cisbio, 62AM4PEJ). Briefly, the intracellular cAMP levels were determined by adding cAMP-d2 conjugate in cell lysis buffer, followed by the antibody anti-cAMP-Eu cryptate (also in cell lysis buffer).
(§2) Using the maximum response percentage vs. the added polypeptide concentration, the relative EC50 values were derived through nonlinear regression analysis and fitted to a four-parameter logarithmic equation. For specific data, refer to Tables 7-1 to 7-8 below. […]
For orientation: TR-FRET usually uses a lanthanide donor and a delayed reading to cut background.

The target of a further series is T2, human GIPR (Homo sapiens, UniProt P48546).
T2 construct: expressed in transfected cells; host or cells: CHO-K1 clonal cell line
T2 sequence (P48546 22-466): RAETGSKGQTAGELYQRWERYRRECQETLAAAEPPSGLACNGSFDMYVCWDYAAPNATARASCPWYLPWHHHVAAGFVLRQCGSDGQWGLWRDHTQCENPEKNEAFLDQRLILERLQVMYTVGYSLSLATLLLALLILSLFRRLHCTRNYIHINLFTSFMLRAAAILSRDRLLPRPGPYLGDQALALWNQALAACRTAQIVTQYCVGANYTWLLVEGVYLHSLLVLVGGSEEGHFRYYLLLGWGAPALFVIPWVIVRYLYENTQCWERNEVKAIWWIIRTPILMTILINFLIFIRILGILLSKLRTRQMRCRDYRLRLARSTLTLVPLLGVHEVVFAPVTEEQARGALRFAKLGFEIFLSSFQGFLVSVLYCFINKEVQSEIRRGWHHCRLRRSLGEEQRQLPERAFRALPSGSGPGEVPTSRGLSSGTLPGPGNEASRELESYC
Description: cAMP HTRF agonist activity assay in CHO-K1 cells expressing GIPR. Note: 5% FBS, 0.1% Casein. It is filed as cell-based. The following applies: read-out: Activity against human GIPR (EC50 nM). As for the experimental part: as §1, §2

The next series deals with T3, human GCGR (Homo sapiens, UniProt P47871).
T3 construct: expressed in transfected cells; host or cells: CHO-K1 clonal cell line
The series is described as follows: cAMP HTRF agonist activity assay in CHO-K1 cells expressing GCGR. The format is cell-based. As for the experimental part: as §1, §2

Series [1] is described as follows: Pharmacokinetics in mice after single intravenous injection. More on the design: species or system C57 mice. To be noted: male, C57, mouse, in vivo, iv. The procedure, abridged: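 Male C57 mice (~25 g, 4-6 weeks, n=3) received a single i.v. dose of 200 nmol/kg in 1×PBS. Plasma collected from 5 min to 72 h was methanol-precipitated with verapamil internal standard and quantified by LC-MS (ESI positive, MRM); PK parameters were calculated by PKSolver.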

T1 sequence (P43220 24-463): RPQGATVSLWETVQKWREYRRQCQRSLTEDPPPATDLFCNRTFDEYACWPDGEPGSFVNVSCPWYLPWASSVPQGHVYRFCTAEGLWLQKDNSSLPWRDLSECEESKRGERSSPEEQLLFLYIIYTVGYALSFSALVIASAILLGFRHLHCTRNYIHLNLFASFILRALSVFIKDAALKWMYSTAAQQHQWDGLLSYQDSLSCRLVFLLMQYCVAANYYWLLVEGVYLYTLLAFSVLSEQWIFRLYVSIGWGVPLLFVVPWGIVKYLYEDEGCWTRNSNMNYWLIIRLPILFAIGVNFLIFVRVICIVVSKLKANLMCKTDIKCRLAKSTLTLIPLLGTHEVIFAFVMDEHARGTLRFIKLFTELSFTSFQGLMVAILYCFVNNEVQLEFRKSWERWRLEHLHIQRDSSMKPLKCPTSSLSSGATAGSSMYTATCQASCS
T3 sequence (P47871 26-477): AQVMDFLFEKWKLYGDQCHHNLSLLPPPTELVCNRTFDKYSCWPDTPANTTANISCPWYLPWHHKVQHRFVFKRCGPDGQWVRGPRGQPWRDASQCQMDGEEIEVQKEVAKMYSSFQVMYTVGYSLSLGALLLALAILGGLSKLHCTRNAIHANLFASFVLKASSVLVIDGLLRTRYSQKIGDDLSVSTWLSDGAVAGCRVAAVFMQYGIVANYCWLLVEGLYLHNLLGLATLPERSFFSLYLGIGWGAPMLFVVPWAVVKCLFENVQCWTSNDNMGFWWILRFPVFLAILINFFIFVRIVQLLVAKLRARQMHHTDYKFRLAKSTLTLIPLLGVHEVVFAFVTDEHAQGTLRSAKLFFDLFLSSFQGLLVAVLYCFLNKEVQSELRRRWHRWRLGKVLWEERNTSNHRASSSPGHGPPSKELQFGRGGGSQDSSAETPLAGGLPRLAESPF

With `CC[C@H](C)[C@H](NC(=O)[C@H](CO)NC(=O)[C@H](CC(C)C)NC(=O)[C@H](CC(=O)O)NC(=O)[C@H](CO)NC(=O)[C@@H](NC(=O)[C@H](Cc1ccccc1)NC(=O)[C@@H](NC(=O)CNC(=O)[C@H](Cc1c[nH]cn1)NC(=O)C(C)(C)NC(=O)[C@@H](N)Cc1c[nH]cn1)[C@@H](C)O)[C@@H](C)O)C(=O)N[C@@H](CC(C)C)C(=O)N[C@@H](CC(C)C)C(=O)N[C@@H](CCC(=O)O)C(=O)N[C@@H](CCCCNC(=O)COCCOCCNC(=O)COCCOCCNC(=O)CC[C@H](NC(=O)CCCCCCCCCCCCCCCCCCC(=O)O)C(=O)O)C(=O)N[C@@H](CCCCN)C(=O)N[C@@H](C)C(=O)N[C@@H](C)C(=O)NC1(C(=O)N[C@@H](CCC(=O)O)C(=O)N[C@@H](Cc2ccccc2)C(=O)N[C@H](C(=O)N[C@@H](CCC(=O)O)C(=O)N[C@@H](Cc2c[nH]c3ccccc23)C(=O)N[C@@H](CC(C)C)C(=O)N[C@@H](CC(C)C)C(=O)N[C@@H](C)C(=O)N[C@H](CCC(=O)O)C(=O)NCC(=O)N2CCC[C@H]2C(=O)N[C@@H](CO)C(=O)N[C@@H](CO)C(=O)NCC(=O)N[C@@H](C)C(=O)N2CCC[C@H]2C(=O)N2CCC[C@H]2C(=O)N2CCC[C@H]2C(=O)N[C@@H](CO)C(N)=O)C(C)C)CC1` [Compound 0146], the values for the EC50 on human GLP-1R and at human GIPR were 0.033 nM and 0.009 nM, respectively.

As to `CC[C@H](C)[C@H](NC(=O)[C@H](CO)NC(=O)[C@H](CC(C)C)NC(=O)[C@H](CC(=O)O)NC(=O)[C@H](CO)NC(=O)[C@@H](NC(=O)[C@H](Cc1ccccc1)NC(=O)[C@@H](NC(=O)CNC(=O)[C@H](Cc1c[nH]cn1)NC(=O)C(C)(C)NC(=O)[C@@H](N)Cc1c[nH]cn1)[C@@H](C)O)[C@@H](C)O)C(=O)N[C@@H](CC(C)C)C(=O)N[C@@H](CC(C)C)C(=O)N[C@@H](CCC(=O)O)C(=O)N[C@@H](CCCCNC(=O)COCCOCCNC(=O)COCCOCCNC(=O)CC[C@H](NC(=O)CCCCCCCCCCCCCCCCCCC(=O)O)C(=O)O)C(=O)N[C@@H](CCCCN)C(=O)N[C@@H](C)C(=O)N[C@@H](C)C(=O)NC1(C(=O)N[C@@H](CCC(=O)O)C(=O)N[C@@H](Cc2ccccc2)C(=O)N[C@H](C(=O)N[C@@H](CCC(=O)O)C(=O)N[C@@H](Cc2c[nH]c3ccccc23)C(=O)N[C@@H](CC(C)C)C(=O)N[C@@H](CC(C)C)C(=O)N[C@@H](C)C(=O)N[C@H](CCC(=O)O)C(=O)NCC(=O)N2CCC[C@H]2C(=O)N[C@@H](CO)C(=O)N[C@@H](CO)C(=O)NCC(=O)N[C@@H](C)C(=O)N2CCC[C@H]2C(=O)N2CCC[C@H]2C(=O)N2CCC[C@H]2C(=O)N[C@@H](CO)C(N)=O)C(C)C)CCC1` [Compound 0147], the EC50 – broadly, the concentration needed to bring the measured effect to its halfway point – on human GLP-1R worked out at 0.035 nM; at human GIPR, 0.005 nM.

With `CCC(C)(NC(=O)[C@H](C)NC(=O)[C@H](C)NC(=O)[C@H](CCCCN)NC(=O)[C@H](CCCCNC(=O)COCCOCCNC(=O)COCCOCCNC(=O)CC[C@H](NC(=O)CCCCCCCCCCCCCCCCCCC(=O)O)C(=O)O)NC(=O)[C@H](CCC(=O)O)NC(=O)[C@H](CC(C)C)NC(=O)[C@H](CC(C)C)NC(=O)[C@](C)(CCCCN)NC(=O)[C@H](CO)NC(=O)[C@H](Cc1ccc(O)cc1)NC(=O)[C@H](CC(=O)O)NC(=O)[C@H](CO)NC(=O)[C@@H](NC(=O)[C@H](Cc1ccccc1)NC(=O)[C@@H](NC(=O)CNC(=O)[C@H](CCC(N)=O)NC(=O)C(C)(C)NC(=O)[C@@H](N)Cc1ccc(O)cc1)[C@@H](C)O)[C@@H](C)O)C(=O)N[C@@H](CCC(=O)O)C(=O)N[C@@H](Cc1ccccc1)C(=O)N[C@H](C(=O)N[C@@H](CCC(=O)O)C(=O)N[C@@H](Cc1c[nH]c2ccccc12)C(=O)N[C@@H](CC(C)C)C(=O)N[C@@H](CC(C)C)C(=O)N[C@@H](C)C(=O)NCC(=O)NCC(=O)N1CCC[C@H]1C(=O)N[C@@H](CO)C(=O)N[C@@H](CO)C(=O)NCC(=O)N[C@@H](C)C(=O)N1CCC[C@H]1C(=O)N1CCC[C@H]1C(=O)N1CCC[C@H]1C(=O)N[C@@H](CO)C(N)=O)C(C)C` (stereo partly shown) [Compound 0127] (H-Y[Aib]QGTFTSDYS[αMeK]LLEK([AEEA-AEEA-γGlu-C20 diacid])KAA[ξIva]EFVEWLLAGGPSSGAPPPS-NH2), a half-maximal response at human GCGR (EC50) required 0.037 nM.

Regarding `CC[C@H](C)[C@H](NC(=O)[C@H](CO)NC(=O)[C@H](Cc1ccc(O)cc1)NC(=O)[C@H](CC(=O)O)NC(=O)[C@H](CO)NC(=O)[C@@H](NC(=O)[C@H](Cc1ccccc1)NC(=O)[C@@H](NC(=O)CNC(=O)[C@H](Cc1c[nH]cn1)NC(=O)C(C)(C)NC(=O)[C@@H](N)Cc1c[nH]cn1)[C@@H](C)O)[C@@H](C)O)C(=O)N[C@@](C)(CC(C)C)C(=O)N[C@@H](CC(C)C)C(=O)N[C@@H](CCC(=O)O)C(=O)N[C@@H](CCCCNC(=O)COCCOCCNC(=O)COCCOCCNC(=O)CC[C@H](NC(=O)CCCCCCCCCCCCCCCCCCC(=O)O)C(=O)O)C(=O)N[C@@H](CCCCN)C(=O)N[C@@H](C)C(=O)N[C@@H](C)C(=O)NC(C)(CC)C(=O)N[C@@H](CCC(=O)O)C(=O)N[C@@H](Cc1ccccc1)C(=O)N[C@H](C(=O)N[C@@H](CCC(=O)O)C(=O)N[C@@H](Cc1c[nH]c2ccccc12)C(=O)N[C@@H](CC(C)C)C(=O)N[C@@H](CC(C)C)C(=O)N[C@@H](C)C(=O)NCC(=O)NCC(=O)N1CCC[C@H]1C(=O)N[C@@H](CO)C(=O)N[C@@H](CO)C(=O)NCC(=O)N[C@@H](C)C(=O)N1CCC[C@H]1C(=O)N1CCC[C@H]1C(=O)N1CCC[C@H]1C(=O)N[C@@H](CO)C(N)=O)C(C)C` (stereo partly shown) [Compound 0137] (H-H[Aib]HGTFTSDYSI[αMeL]LEK([AEEA-AEEA-γGlu-C20 diacid])KAA[ξIva]EFVEWLLAGGPSSGAPPPS-NH2), the EC50 at human GLP-1R was 0.013 nM. In series [1], the clearance (usually a measure of how efficiently the substance is removed, as volume per time) was 0.163 mL/min/kg and the half-life (commonly the time in which the quantity being followed falls by half) was 8.8 h. Moreover, at human GIPR, the EC50 was 0.001 nM.

At human GCGR, `CC[C@H](C)[C@H](NC(=O)[C@](C)(CCCCN)NC(=O)[C@H](CO)NC(=O)[C@H](Cc1ccc(O)cc1)NC(=O)[C@H](CC(=O)O)NC(=O)[C@H](CO)NC(=O)[C@@H](NC(=O)[C@H](Cc1ccccc1)NC(=O)[C@@H](NC(=O)CNC(=O)[C@H](Cc1c[nH]cn1)NC(=O)C(C)(C)NC(=O)[C@@H](N)Cc1c[nH]cn1)[C@@H](C)O)[C@@H](C)O)C(=O)N[C@@H](CC(C)C)C(=O)N[C@@H](CCC(=O)O)C(=O)N[C@@H](CCCCNC(=O)COCCOCCNC(=O)COCCOCCNC(=O)CC[C@H](NC(=O)CCCCCCCCCCCCCCCCCCC(=O)O)C(=O)O)C(=O)N[C@@H](CCC(N)=O)C(=O)N[C@@H](C)C(=O)N[C@@H](C)C(=O)NC(C)(CC)C(=O)N[C@@H](CCC(=O)O)C(=O)N[C@@H](Cc1ccccc1)C(=O)N[C@H](C(=O)N[C@@H](CCC(=O)O)C(=O)N[C@@H](Cc1c[nH]c2ccccc12)C(=O)N[C@@H](CC(C)C)C(=O)N[C@@H](CC(C)C)C(=O)N[C@@H](C)C(=O)NCC(=O)NCC(=O)N1CCC[C@H]1C(=O)N[C@@H](CO)C(=O)N[C@@H](CO)C(=O)NCC(=O)N[C@@H](C)C(=O)N1CCC[C@H]1C(=O)N1CCC[C@H]1C(=O)N1CCC[C@H]1C(=O)N[C@@H](CO)C(N)=O)C(C)C` (stereo partly shown) [Compound 0130] (H-H[Aib]HGTFTSDYS[αMeK]ILEK([AEEA-AEEA-γGlu-C20 diacid])QAA[ξIva]EFVEWLLAGGPSSGAPPPS-NH2) yielded an EC50 of 0.03 nM.
